Source: patent US11571423B2, “Small molecule modulators of human sting” (Curadev Pharma Limited, priority 2017, dated 2023)

Molecular target: hSTING(R232) (Homo sapiens, UniProt Q86WV6, H232R)
Assay: Luciferase reporter assay in HEK293T-hSTING-Luciferase cells, R232 (wild type) human STING
Type: cell-based
Settings: 20 hr stimulation, read-out: R232 human activity (EC50 range)
Source text: Stable Cell Line Generation • a) Stable STING expressing cells—Stable HEK293T STING-expressing cell lines were generated using plasmids purchased from Invivogen, CA, USA, that contain STING cDNA cloned into the pUNO-1 vector under hEF1-HTLV promoter and containing the Blasticidin selection cassette. The plasmids hSTING(R232), hSTING(H232), hSTING(HAQ) were directly procured from Invivogen while hSTING (AQ) and hSTING (Q) were derived from hSTING(HAQ) and hSTING (R232) plasmids respectively by using a PCR based site directed mutagenesis method. These vectors were individually transfected into HEK293T cells using Lipofectamine (Invitrogen) and transfected cells were selected under Blasticidin selection. These transfected cells were further subjected to clonal selection using the limiting dilution method to obtain clonally pure populations of HEK cells transfected with each of the above mentioned human STING variants. Only those clones were selected in which ligand independent activation of STING was minimal. • b) Stable Luciferase reporter gene expressing cells—Stable HEK293T Luciferase reporter gene expressing cell lines were generated using pCDNA4 plasmids under an IRF-inducible promoter. This promoter is comprised of five tandem interferon-stimulated response elements (ISRE) fused to an ISG54 minimal promoter. This vector was transfected into HEK293T cells using Lipofectamine (Invitrogen) and transfected cells were selected under Zeocin selection. These transfected cells were further subjected to clonal selection using the limiting dilution method to obtain clonally pure populations of HEK cells transfected the Luciferase reporter construct. Only those clones were selected in which ligand independent induction of luciferase was minimal.
5×10^5 clonally selected HEK293T-hSTING-Luciferase cells were seeded in 384-well plates in growth medium and stimulated with novel compounds. After 20 hr of stimulation supernatant were removed and secretary reporter gene activity were measured using the Quanti-Luc detection system (Invivogen) on a Spectramax i3X luminometer.
In the tables below, EC50 value ranges for exemplary compounds are given.
All compounds were first tested in a primary screen to obtain a ‘fold-induction’ over baseline levels of protein activity.

Sequence of hSTING(R232) (Q86WV6 whole entry H232R): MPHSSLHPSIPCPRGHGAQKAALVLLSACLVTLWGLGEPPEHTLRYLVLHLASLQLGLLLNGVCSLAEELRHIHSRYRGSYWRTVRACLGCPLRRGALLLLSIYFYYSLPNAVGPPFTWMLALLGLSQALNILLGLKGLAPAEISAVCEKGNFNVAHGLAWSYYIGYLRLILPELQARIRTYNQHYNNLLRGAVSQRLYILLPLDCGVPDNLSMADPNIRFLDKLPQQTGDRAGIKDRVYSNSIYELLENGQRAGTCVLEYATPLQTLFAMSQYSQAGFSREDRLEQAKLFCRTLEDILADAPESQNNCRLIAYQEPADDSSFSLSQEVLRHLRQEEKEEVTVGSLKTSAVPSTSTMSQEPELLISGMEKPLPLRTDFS

Structure (SMILES) | EC50 [µM]
CN1Cc2ccc(C(=O)NCc3ccc4c(c3)CC(=O)N4)cc2N(Cc2c(F)cccc2Cl)C1=O [Example 59, 1-(2-chloro-6-fluorobenzyl)-3-methyl-2-oxo-N-((2-oxoindolin-5-yl)methyl)-1,2,3,4-tetrahydroquinazoline-7-carboxamide] | > 10
COc1cc(F)c(CNC(=O)c2ccc3c(c2)N(Cc2c(F)cccc2Cl)C(=O)N(C)C3)c(F)c1 [Example 60, 1-(2-chloro-6-fluorobenzyl)-N-(2,6-difluoro-4-methoxybenzyl)-3-methyl-2-oxo-1,2,3,4-tetrahydroquinazoline-7-carboxamide] | 1 to 10
O=C(NCc1c(F)cc(F)cc1F)c1ccc2c(c1)N(Cc1c(F)cccc1Cl)C(=O)N(OCc1ccccc1)C2 [Example 68, 3-(benzyloxy)-1-(2-chloro-6-fluorobenzyl)-2-oxo-N-(2,4,6-trifluorobenzyl)-1,2,3,4-tetrahydroquinazoline-7-carboxamide] | > 10
CN1Cc2ccc(C(=O)NCc3c(F)cc(F)cc3F)cc2N(Cc2cc(F)cc(F)c2)S1(=O)=O [Example 70, 1-(3,5-difluorobenzyl)-3-methyl-N-(2,4,6-trifluorobenzyl)-3,4-dihydro-1H-benzo[c][1,2,6]thiadiazine-7-carboxamide 2,2-dioxide] | 1 to 10
CN1Cc2ncc(C(=O)NCc3cc4ccccc4o3)cc2N(Cc2c(F)cccc2Cl)C1=O [Example 73, N-(benzofuran-2-ylmethyl)-1-(2-chloro-6-fluorobenzyl)-3-methyl-2-oxo-1,2,3,4-tetrahydropyrido[3,2-d]pyrimidine-7-carboxamide] | > 10
C[C@H]1c2ccc(C(=O)NCc3c(F)cc(F)cc3F)cc2N(Cc2c(OCCOP(=O)(O)O)ccc(F)c2F)C(=O)N1C [Example 91, (S)-2-(2-((3,4-dimethyl-2-oxo-7-((2,4,6-trifluorobenzyl)carbamoyl)-3,4-dihydroquinazolin-1(2H)-yl)methyl)-3,4-difluorophenoxy)ethyl dihydrogen phosphate] | < 1
C[C@H]1c2ccc(C(=O)NCc3c(F)cc(F)cc3F)cc2N(Cc2ccc(OP(=O)(O)O)cc2F)C(=O)N1C [Example 92, (S)-4-((3,4-dimethyl-2-oxo-7-((2,4,6-trifluorobenzyl)carbamoyl)-3,4-dihydroquinazolin-1(2H)-yl)methyl)-3-fluorophenyl dihydrogen phosphate] | < 1
C[C@H]1c2ccc(C(=O)NCc3ccc(F)cc3OP(=O)(O)O)cc2N(Cc2c(F)cccc2Cl)C(=O)N1C [Example 93, (S)-2-((1-(2-chloro-6-fluorobenzyl)-3,4-dimethyl-2-oxo-1,2,3,4-tetrahydroquinazoline-7-carboxamido)methyl)-5-fluorophenyl dihydrogen phosphate] | < 1
C[C@H]1c2ccc(C(=O)NCc3c(F)cc(F)cc3F)cc2N(Cc2c(OP(=O)(O)O)ccc(F)c2F)C(=O)N1C [Example 99, (S)-2-((3,4-dimethyl-2-oxo-7-((2,4,6-trifluorobenzyl)carbamoyl)-3,4-dihydroquinazolin-1(2H)-yl)methyl)-3,4-difluorophenyl dihydrogen phosphate] | 1 to 10
C[C@H]1c2ccc(C(=O)NCc3c(F)cc(F)cc3F)cc2N(Cc2c(F)ccc(OCCCOP(=O)(O)O)c2F)C(=O)N1C [Example 104, (S)-3-(3-((3,4-dimethyl-2-oxo-7-((2,4,6-trifluorobenzyl)carbamoyl)-3,4-dihydroquinazolin-1(2H)-yl)methyl)-2,4-difluorophenoxy)propyl dihydrogen phosphate] | < 1
C[C@H]1c2ccc(C(=O)NCc3c(F)cc(F)cc3F)cc2N(Cc2c(F)ccc(OC(=O)N(C)CCC(=O)OCc3ccccc3)c2Cl)C(=O)N1C [Example 140, (S)-Benzyl 3-((2-chloro-3-((3,4-dimethyl-2-oxo-7-((2,4,6-trifluorobenzyl)carbamoyl)-3,4-dihydroquinazolin-1(2H)-yl)methyl)-4-fluorophenoxy)carbonyl)(methylamino)propanoate] | > 10

Now from value to compound:

EC50 [µM] | Structure (SMILES)
1 to 10 | CN1Cc2ccc(C(=O)NCc3c(F)cc(F)cc3F)cc2N(Cc2c(F)cccc2C(F)(F)F)C1=O [Example 56, 1-(2-fluoro-6-(trifluoromethyl)benzyl)-3-methyl-2-oxo-N-(2,4,6-trifluorobenzyl)-1,2,3,4-tetrahydroquinazoline-7-carboxamide]
> 10 | Cc1cc(CN2C(=O)N(C)Cc3ccc(C(=O)NCc4c(F)cc(F)cc4F)cc32)nn1C [Example 57, l-((l,5-dimethyl-1H-pyrazol-3-yl)methyl)-3-methyl-2-oxo-N-(2,4,6-trifluorobenzyl)-1,2,3,4-tetrahydroquinazoline-7-carboxamide]
> 10 | CN1Cc2ccc(C(=O)NCc3cc4cc(N)ccc4o3)cc2N(Cc2c(F)cccc2Cl)C1=O [Example 58, N-((5-aminobenzofuran-2-yl)methyl)-1-(2-chloro-6-fluorobenzyl)-3-methyl-2-oxo-1,2,3,4-tetrahydroquinazoline-7-carboxamide]
> 10 | COc1cc(F)ccc1CNC(=O)c1ccc2c(c1)N(Cc1c(F)cccc1Cl)C(=O)N(C)C2 [Example 61, 1-(2-chloro-6-fluorobenzyl)-N-(4-flnoro-2-methoxybenzyl)-3-methyl-2-oxo-1,2,3,4-tetrahydroquinazoline-7-carboxamide]
1 to 10 | CN1Cc2ccc(C(=O)NCc3c(F)cc(F)cc3F)cc2N(Cc2c(Cl)cccc2Cl)C1=O [Example 62, l-(2,6-dichlorobenzyl)-3-methyl-2-oxo-N-(2,4,6-trifluorobenzyl)-1,2,3,4-tetrahydroquinazoline-7-carboxamide]
1 to 10 | COc1cccc(CN2C(=O)N(C)Cc3ccc(C(=O)NCc4c(F)cc(F)cc4F)cc32)c1F [Example 63, 1-(2-fluoro-3-methoxybenzyl)-3-methyl-2-oxo-N-(2,4,6-trifluorobenzyl)-1,2,3,4-tetrahydroquinazoline-7-carboxamide]
> 10 | CN1Cc2ccc(C(=O)NCc3c(F)cc(F)cc3F)cc2N(Cc2cc(C3CC3)no2)C1=O [Example 64, 1-((3-cyclopropylisoxazol-5-yl)methyl)-3-methyl-2-oxo-N-(2,4,6-trifluorobenzyl)-1,2,3,4-tetrahydroquinazoline-7-carboxamide]
> 10 | CN1Cc2ccc(C(=O)NCc3c(F)cc(F)cc3F)cc2N(Cc2cn3ccccc3n2)C1=O [Example 65, 1-(imidazo[1,2-a]pyridin-2-ylmethyl)-3-methyl-2-oxo-N-(2,4,6-trifluorobenzyl)-1,2,3,4-tetrahydroquinazoline-7-carboxamide]
< 1 | Cc1ccc(Cl)c(CN2C(=O)N(C)Cc3ccc(C(=O)NCc4c(F)cc(F)cc4F)cc32)c1F [Example 66, 1-(6-chloro-2-fluoro-3-methylbenzyl)-3-methyl-2-oxo-N-(2,4,6-trifluorobenzyl)-1,2,3,4-tetrahydroquinazoline-7-carboxamide]
1 to 10 | Cc1nn(C)c(CN2C(=O)N(C)Cc3ccc(C(=O)NCc4c(F)cc(F)cc4F)cc32)c1Br [Example 67, 1-((4-bromo-1,3-dimethyl-1H-pyrazol-5-yl)methyl)-3-methyl-2-oxo-N-(2,4,6-trifluorobenzyl)-1,2,3,4-tetrahydroquinazoline-7-carboxamide]
> 10 | O=C(NCc1c(F)cc(F)cc1F)c1ccc2c(c1)N(Cc1c(F)cccc1Cl)C(=O)N(O)C2 [Example 69, 1-(2-chloro-6-fluorobenzyl)-3-hydroxy-2-oxo-N-(2,4,6-trifluorobenzyl)-1,2,3,4-tetrahydroquinazoline-7-carboxamide]
1 to 10 | CN1Cc2ncc(C(=O)NCc3c(F)cc(F)cc3F)cc2N(Cc2c(F)cccc2Cl)C1=O [Example 71, 1-(2-chloro-6-fluorobenzyl)-3-methyl-2-oxo-N-(2,4,6-trifluorobenzyl)-1,2,3,4-tetrahydropyrido[3,2-d]pyrimidine-7-carboxamide]
1 to 10 | CN1Cc2ncc(C(=O)NCc3c(F)cc(F)cc3F)cc2N(Cc2cc(F)cc(F)c2)C1=O [Example 72, 1-(3,5-difluorobenzyl)-3-methyl-2-oxo-N-(2,4,6-trifluorobenzyl)-1,2,3,4-tetrahydropyrido[3,2-d]pyrimidine-7-carboxamide]
> 10 | C[C@H]1c2ccc(C(=O)NCc3c(F)cc(F)cc3F)cc2N(Cc2c(F)ccc(C(=O)O)c2F)C(=O)N1C [Example 142, (S)-3-((3,4-Dimethyl-2-oxo-7-((2,4,6-trifluorobenzyl)carbamoyl)-3,4-dihydroquinazolin-1(2H)-yl)methyl)-2,4-difluorobenzoic acid]
< 1 | C[C@H]1c2ccc(C(=O)NCc3c(F)cc(F)cc3F)cc2N(Cc2c(F)ccc(C(=O)NCCO)c2F)C(=O)N1C [Example 143]
< 1 | C[C@H]1c2ccc(C(=O)NCc3c(F)cc(O)cc3F)cc2N(Cc2c(F)cc(O)cc2F)C(=O)N1C [Example 150, (S)—N,1-bis(2,6-Difluoro-4-hydroxybenzyl)-3,4-dimethyl-2-oxo-1,2,3,4-tetrahydroquinazoline-7-carboxamide]
